Among the test systems are NCI-H226 lung; HT29 colon; NCI-H460 lung; HCC-2998 colon; K-562 leukemia; CAKI-1 renal; HL-60(TB) leukemia; SK-MEL-28 melanoma; CCRF-CEM leukemia; A498 renal.
Holding throughout (assay): NCI-60 cell line screen, 48 h

“And” between values parts separate entries of the source, which are not always exact repeats. Equal entries are not always repeated.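 Five concentrations, 48 hours, 96-well plates. At the GI50, growth is halved. TGI: concentration producing complete growth inhibition.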

As to `CC(C)(C)c1cnc(CSc2cnc(NC(=O)C3CCNCC3)s2)o1`, the GI50 with NCI-H226 lung is 0.663 µM and 0.222 µM; in the assay on HT29 colon, 0.181 µM and 0.182 µM; with NCI-H460 lung, 0.306 µM and 0.319 µM; in the assay on HCC-2998 colon, 0.27 µM and 0.243 µM; with K-562 leukemia it was 0.337 µM and 0.229 µM; with CAKI-1 renal, 3.89 µM and > 3 µM. For the same molecule, the GI50 was 0.0937 µM and 0.0791 µM in the assay with HL-60(TB) leukemia; 0.166 µM and 0.221 µM in the assay on SK-MEL-28 melanoma; 0.251 µM and 0.168 µM in the assay with CCRF-CEM leukemia; 0.223 µM and 0.23 µM in the assay with A498 renal. Besides, the TGI was 25.4 µM and > 10 µM in the assay with NCI-H460 lung; 3.79 µM and 1.67 µM in the assay with HCC-2998 colon; more than 53.2 µM with K-562 leukemia; 32.7 µM and > 10 µM in the assay on CAKI-1 renal; 0.976 µM and 0.461 µM in the assay with HL-60(TB) leukemia; 0.523 µM and 1.06 µM with SK-MEL-28 melanoma. The TGI in the assay with CCRF-CEM leukemia was more than 100 µM; with A498 renal it was 0.598 µM and 0.714 µM.
`Nc1cccc(C(=O)/C=C/c2ccccc2O)c1`: the TGI in the assay with NCI-H226 lung, in the assay on HT29 colon, in the assay with NCI-H460 lung, in the assay with HCC-2998 colon, with K-562 leukemia and in the assay with CAKI-1 renal was more than 100 µM each time. Moreover, the TGI with HL-60(TB) leukemia was 46.9 µM; in the assay on SK-MEL-28 melanoma, more than 100 µM; with CCRF-CEM leukemia, more than 100 µM; in the assay with A498 renal, more than 100 µM.
As for `COc1ccc(-c2nn(-c3cccc(Cl)c3)cc2-c2c(C#N)c(=O)n3[nH]c(-c4ccc(C)o4)nc3c2C#N)cc1`, the GI50 is 7.35 µM in the assay on NCI-H226 lung; 7.21 µM with HT29 colon; 6.38 µM in the assay with NCI-H460 lung; 7.43 µM in the assay on HCC-2998 colon; 4.09 µM with K-562 leukemia; 6.8 µM in the assay with CAKI-1 renal. Also, the GI50 in the assay with HL-60(TB) leukemia was 4.88 µM; in the assay on SK-MEL-28 melanoma, 5.51 µM; in the assay on CCRF-CEM leukemia it was 2.45 µM; with A498 renal, 1.55 µM. The TGI in the assay with NCI-H226 lung is more than 50 µM; with HT29 colon, 33.6 µM; in the assay with NCI-H460 lung, more than 50 µM; in the assay with HCC-2998 colon it was 45.7 µM; with K-562 leukemia, more than 50 µM; in the assay with CAKI-1 renal, more than 50 µM. The TGI is 23.5 µM in the assay on HL-60(TB) leukemia, 21.1 µM in the assay with SK-MEL-28 melanoma, more than 50 µM with CCRF-CEM leukemia and 10.7 µM with A498 renal.
Take `O=C1Cc2c([nH]c3ccccc23)-c2cc(Br)ccc2N1`: the TGI with NCI-H226 lung, in the assay with HT29 colon, in the assay with NCI-H460 lung, in the assay on HCC-2998 colon, in the assay on K-562 leukemia and in the assay on CAKI-1 renal was more than 100 µM throughout. Besides, the TGI with HL-60(TB) leukemia, with SK-MEL-28 melanoma, with CCRF-CEM leukemia and in the assay on A498 renal was more than 100 µM throughout.
For the molecule `CN(Cc1cnc2nc(N)nc(N)c2n1)c1c(Cl)cc(C(=O)NC(CCC(=O)O)C(=O)O)cc1Br` (stereo not drawn), the GI50 is 0.0237 µM in the assay with NCI-H226 lung; less than 0.01 µM in the assay with HT29 colon; less than 0.01 µM in the assay with NCI-H460 lung; less than 0.01 µM with HCC-2998 colon; less than 0.01 µM with K-562 leukemia; less than 0.01 µM in the assay with CAKI-1 renal. Moreover, the GI50 in the assay on HL-60(TB) leukemia was less than 0.01 µM; with SK-MEL-28 melanoma it was more than 23.8 µM; in the assay on CCRF-CEM leukemia, less than 0.01 µM; in the assay with A498 renal it was 0.0302 µM. Besides, the TGI with NCI-H226 lung was more than 100 µM; in the assay with HT29 colon, more than 100 µM; with NCI-H460 lung it was more than 100 µM; in the assay with HCC-2998 colon, 0.153 µM; in the assay on K-562 leukemia, more than 100 µM; in the assay with CAKI-1 renal, 0.0671 µM. The TGI in the assay on HL-60(TB) leukemia, with SK-MEL-28 melanoma, with CCRF-CEM leukemia and in the assay on A498 renal was more than 100 µM throughout.
In the case of `N#CC(C#N)=C/C=C/c1ccccc1[N+](=O)[O-]`, the TGI in the assay with NCI-H226 lung, with HT29 colon, with NCI-H460 lung, in the assay with HCC-2998 colon, with K-562 leukemia and in the assay with CAKI-1 renal was more than 10 µM throughout. The TGI is more than 10 µM in the assay on HL-60(TB) leukemia, 5.47 µM in the assay on SK-MEL-28 melanoma, more than 10 µM in the assay with CCRF-CEM leukemia and more than 10 µM in the assay with A498 renal.
Consider `COc1cc(OC)c(OC)cc1/C=C\c1ccnc2ccccc12`, for which the TGI in the assay on NCI-H226 lung is 30.2 µM; with HT29 colon, 16.1 µM; in the assay with NCI-H460 lung, 37.3 µM; in the assay with HCC-2998 colon it was 17.8 µM; in the assay on K-562 leukemia it was 31.3 µM; in the assay on CAKI-1 renal, more than 79.5 µM. For the same molecule, the TGI in the assay with HL-60(TB) leukemia was 5 µM; with SK-MEL-28 melanoma it was more than 100 µM; in the assay on CCRF-CEM leukemia, 67.8 µM; with A498 renal, 5.64 µM.
Regarding `O=C(Nc1c(Cl)cc([N+](=O)[O-])cc1Cl)C(=O)C(C(=O)c1ccncc1)C1OC(=O)c2ccccc21` (stereo not drawn), the TGI in the assay on NCI-H226 lung, with HT29 colon, in the assay with NCI-H460 lung, in the assay on HCC-2998 colon, with K-562 leukemia and with CAKI-1 renal was more than 100 µM throughout. Further, the TGI with HL-60(TB) leukemia, with SK-MEL-28 melanoma, in the assay on CCRF-CEM leukemia and in the assay with A498 renal was more than 100 µM each time.
Take `Cc1c(C(=O)/C=C/c2ccc3c(c2)OCO3)[n+](=O)c2ccccc2n1[O-]`: the TGI was 60.9 µM in the assay with NCI-H226 lung; 56.4 µM with HT29 colon; 75.6 µM in the assay with NCI-H460 lung; 57.5 µM with HCC-2998 colon; more than 100 µM in the assay with K-562 leukemia; 85.7 µM in the assay with CAKI-1 renal. Moreover, the TGI in the assay with HL-60(TB) leukemia was more than 100 µM; in the assay with SK-MEL-28 melanoma, more than 100 µM; with CCRF-CEM leukemia, more than 100 µM; in the assay with A498 renal, 64 µM.
Consider `COc1ccc(-c2nc3sccn3c2/C=C/C(=O)c2cc(OC)c(OC)c(OC)c2)cc1`, for which the GI50 with NCI-H226 lung was 2.95 µM; with HT29 colon, 3.22 µM; in the assay on NCI-H460 lung it was 2.54 µM; in the assay on HCC-2998 colon, 3.03 µM; with K-562 leukemia, 2.43 µM; in the assay with CAKI-1 renal, 2.02 µM. Further, the GI50 with HL-60(TB) leukemia was 3.33 µM; in the assay with SK-MEL-28 melanoma, 4.05 µM; in the assay on CCRF-CEM leukemia, 3.4 µM; in the assay with A498 renal, 2.52 µM. Also, the TGI with NCI-H226 lung was more than 35 µM; with HT29 colon, 11.8 µM; in the assay on NCI-H460 lung, 11.1 µM; with HCC-2998 colon it was 14.4 µM; in the assay on K-562 leukemia it was more than 23.9 µM; in the assay with CAKI-1 renal, more than 100 µM. Further, the TGI was 82.3 µM in the assay on HL-60(TB) leukemia, 51.8 µM in the assay on SK-MEL-28 melanoma, 53.1 µM in the assay on CCRF-CEM leukemia and 6.41 µM with A498 renal.

The values are drawn from PubChem BioAssay (NCI).
